According to patent publication US7183415B2, “Quinoline compound” (Takeda Pharmaceutical Company Limited, priority 2001, dated 2007):

Structure (SMILES) | melting point
Cc1c(NC(=O)c2ccc(-c3ccc(F)cc3F)cc2F)ccc2cc(CN3CCCC3)cnc12 [Example 139, 2′,3,4′-trifluoro-N-[8-methyl-3-(1-pyrrolidinylmethyl)-7-quinolinyl][1,1′-biphenyl]-4-carboxamide] | 172 to 173 °C
Cc1ccc(C2CCN(C(=O)Nc3ccc4cc(CN5CCCCCC5)cnc4c3)CC2)cc1 [Example 35, N-[3-(1-azepanylmethyl)-7-quinolinyl]-4-(4-methylphenyl)-1-piperidine carboxamide] | 240 °C (dec.)
Cc1c(NC(=O)c2ccc(-c3ccccc3F)cc2F)ccc2cc(CN3CCCC3)cnc12 [Example 148, 2′,3-difluoro-N-[8-methyl-3-(1-pyrrolidinylmethyl)-7-quinolinyl][1,1′-biphenyl]-4-carboxamide] | 159 to 160 °C
Cc1c(NC(=O)c2ccc(-c3ccccc3F)cc2)ccc2cc(CN3CCCC3)cnc12 [Example 99, 2′-fluoro-N-[8-methyl-3-(1-pyrrolidinylmethyl)-7-quinolinyl][1,1′-biphenyl]-4-carboxamide] | 133 to 135 °C
O=C(Nc1cc2ncc(CN3CCCC3)cc2cc1Cl)c1ccc(-c2cc3ccccc3o2)cc1 [Example 68, 4-(1-benzofuran-2-yl)-N-[6-chloro-3-(1-pyrrolidinylmethyl)-7-quinolinyl]benzamide] | 209 °C
COc1ccc(-c2ccc(C(=O)Nc3ccc4cc(CN5CCCC5)cnc4c3C)c(F)c2)cc1 [Example 147, 3-fluoro-4′-methoxy-N-[8-methyl-3-(1-pyrrolidinylmethyl)-7-quinolinyl][1,1′-biphenyl]-4-carboxamide] | 164 to 166 °C
Cc1c(NC(=O)c2ccc(-c3ccccc3)c(F)c2)ccc2cc(CN3CCCC3)cnc12 [Example 151, 2-fluoro-N-[8-methyl-3-(1-pyrrolidinylmethyl)-7-quinolinyl][1,1′-biphenyl]-4-carboxamide] | 156 to 158 °C
Cc1c(NC(=O)c2ccc(-c3cc4ccccc4s3)cc2)ccc2cc(CN3CCCC3)cnc12 (hydrate or solvate) [Example 120, 4-(1-benzothien-2-yl)-N-[8-methyl-3-(1-pyrrolidinylmethyl)-7-quinolinyl]benzamide] | 217 to 218 °C
COc1ccc(-c2ccc(C(=O)Nc3ccc4cc(CN5CCCC5)cnc4c3F)c(F)c2)cc1 [Example 79, 3-fluoro-N-[8-fluoro-3-(1-pyrrolidinylmethyl)-7-quinolinyl]-4′-methoxy[1,1′-biphenyl]-4-carboxamide] | 182 to 183 °C
O=C(Nc1ccc2cc(CN3CCC(CCO)CC3)cnc2c1)c1ccc(-c2ccc(Cl)cc2)cc1 [Example 89, 4′-chloro-N-(3-{[4-(2-hydroxyethyl)-1-piperidinyl]methyl}-7-quinolinyl)-[1,1′-biphenyl]-4-carboxamide] | 204 °C
CC(=O)NC1CCN(Cc2cnc3cc(NC(=O)c4ccc(-c5ccc(Cl)cc5)cc4)ccc3c2)C1 (centres unmarked) [Example 92, N-(3-{[3-(acetylamino)-1-pyrrolidinyl]methyl}-7-quinolinyl)-4′-chloro-[1,1′-biphenyl]-4-carboxamide] | > 285 °C
O=C(Nc1ccc2cc(CN3CCCC3)cnc2c1)c1ccc(-c2ccccc2)cc1 [Example 2, N-[3-(1-pyrrolidinylmethyl)-7-quinolinyl][1,1′-biphenyl]-4-carboxamide] | 192 to 194 °C
O=C(Nc1ccc2cc(CN3CCCC3)cnc2c1)c1ccc(-c2ccc(Cl)cc2)nc1 [Example 11, 6-(4-chlorophenyl)-N-[3-(1-pyrrolidinylmethyl)-7-quinolinyl]nicotinamide] | 223 to 225 °C
Cc1ccc(-c2ccc(C(=O)Nc3ccc4cc(CN5CCC(C(N)=O)CC5)cnc4c3C)cc2)cc1 [Example 26, 1-[(8-methyl-7-{[(4′-methyl-1,1′-biphenyl-4-yl)carbonyl]amino}-3-quinolinyl)methyl]-4-piperidine carboxamide] | 287 °C (dec.)
COc1ccc(-c2ccc(C(=O)Nc3ccc4cc(CN5CCCC5)cnc4c3)cc2)cc1 [Example 3, 4′-methoxy-N-[3-(1-pyrrolidinylmethyl)-7-quinolinyl][1,1′-biphenyl]-4-carboxamide] | 202 to 204 °C
Cc1ccc(-c2ccc(C(=O)Nc3ccc4cc(CN5CCCC5)cnc4c3F)cc2)cc1 [Example 74, N-[8-fluoro-3-(1-pyrrolidinylmethyl)-7-quinolinyl]-4′-methyl[1,1′-biphenyl]-4-carboxamide] | 210 to 213 °C
O=C(Nc1cc2ncc(CN3CCCC3)cc2cc1F)c1ccc(-c2ccc(Cl)cc2)cc1F [Example 62, 4′-chloro-3-fluoro-N-[6-fluoro-3-(1-pyrrolidinylmethyl)-7-quinolinyl][1,1′-biphenyl]-4-carboxamide] | 217 to 219 °C
Cc1c(NC(=O)c2ccc(-c3ccc(F)cc3F)cc2)ccc2cc(CN3CCCC3)cnc12 [Example 100, 2′,4′-difluoro-N-[8-methyl-3-(1-pyrrolidinylmethyl)-7-quinolinyl][1,1′-biphenyl]-4-carboxamide] | 177 to 179 °C
Cc1ccc(-c2ccc(C(=O)Nc3ccc4cc(CN5CCCC5)cnc4c3C)c(F)c2)cc1 [Example 135, 3-fluoro-4′-methyl-N-[8-methyl-3-(1-pyrrolidinylmethyl)-7-quinolinyl][1,1′-biphenyl]-4-carboxamide] | 180 to 182 °C

Other lines, results leading:

melting point | Structure (SMILES)
129 to 130 °C | Cc1c(NC(=O)c2ccc(-c3ccccc3)c(F)c2)ccc2cc(CN3CCCCCC3)cnc12 (hydrate or solvate) [Example 188, N-[3-(1-azepanylmethyl)-8-methyl-7-quinolinyl]-2-fluoro[1,1′-biphenyl]-4-carboxamide]
197 °C | CCN(CC)C(=O)CC1CCN(Cc2cnc3cc(NC(=O)c4ccc(-c5ccc(F)cc5)cc4)c(C)cc3c2)CC1 [Example 266, N-[3-({4-[2-(diethylamino)-2-oxoethyl]-1-piperidinyl}methyl)-6-methyl-7-quinolinyl]-4′-fluoro[1,1′-biphenyl]-4-carboxamide]
183 to 186 °C | Cc1cc2cc(CN(C)C)cnc2cc1NC(=O)c1ccc(-c2ccc(F)cc2)cc1 [Example 248, N-{3-[(dimethylamino)methyl]-6-methyl-7-quinolinyl}-4′-fluoro[1,1′-biphenyl]-4-carboxamide]
265 °C | Cc1cc2cc(CN3CCC(C(N)=O)CC3)cnc2cc1NC(=O)c1ccc(-c2ccc(F)cc2)cc1 [Example 276, 1-[(7-{[(4′-fluoro-1,1′-biphenyl-4-yl)carbonyl]amino}-6-methyl-3-quinolinyl)methyl]piperidine-4-carboxamide]
176 to 179 °C | Cc1ccc(-c2ccc(C(=O)Nc3cc4ncc(CN5CCCC5)cc4cc3C)c(F)c2)cc1 [Example 229, 3-fluoro-4′-methyl-N-[6-methyl-3-(1-pyrrolidinylmethyl)-7-quinolinyl][1,1′-biphenyl]-4-carboxamide]
188 °C | CCc1ccc(-c2ccc(C(=O)Nc3cc4ncc(CN5CCCC5)cc4cc3C)cc2)cc1 [Example 217, 4′-ethyl-N-[6-methyl-3-(1-pyrrolidinylmethyl)-7-quinolinyl][1,1′-biphenyl]-4-carboxamide]
145 to 148 °C | CCN(CC)Cc1cnc2cc(NC(=O)c3ccc(-c4ccc(F)cc4)cc3)c(C)cc2c1 [Example 249, N-{3-[(diethylamino)methyl]-6-methyl-7-quinolinyl)-4′-fluoro[1,1′-biphenyl]-4-carboxamide]
166 to 167 °C | Cc1c(NC(=O)c2ccc(-c3ccc(Cl)s3)cc2F)ccc2cc(CN3CCCCCC3)cnc12 (hydrate or solvate) [Example 186, N-[3-(1-azepanylmethyl)-8-methyl-7-quinolinyl]-4-(5-chloro-2-thienyl)-2-fluorobenzamide]
207 to 211 °C | CNC(=O)CCC1CCN(Cc2cnc3cc(NC(=O)c4ccc(-c5ccc(F)cc5)cc4)c(C)cc3c2)CC1 [Example 254, 4′-fluoro-N-[6-methyl-3-({4-[3-(methylamino)-3-oxopropyl]-1-piperidinyl}methyl)-7-quinolinyl][1,1′-biphenyl]-4-carboxamide]
174 to 176 °C | COc1ccc(-c2ccc(C(=O)Nc3ccc4cc(CN5CCCC5)cnc4c3C)cc2F)cc1 [Example 152, 2-fluoro-4′-methoxy-N-[8-methyl-3-(1-pyrrolidinylmethyl)-7-quinolinyl][1,1′-biphenyl]-4-carboxamide]
208 °C | O=C(Nc1ccc2cc(CN3CCCC3)cnc2c1F)c1ccc(-c2ccc(Cl)cc2)cc1F [Example 279, 4′-chloro-3-fluoro-N-[8-fluoro-3-(1-pyrrolidinylmethyl)-7-quinolinyl][1,1′-biphenyl]-4-carboxamide]
194 °C | Cc1cc2cc(CN3CCCC3)cnc2cc1NC(=O)c1ccc(-c2ccc3ccccc3c2)cc1 [Example 222, N-[6-methyl-3-(1-pyrrolidinylmethyl)-7-quinolinyl]-4-(2-naphthyl)benzamide]
139 to 140 °C | Cc1c(NC(=O)c2ccc(-c3ccccc3F)c(F)c2)ccc2cc(CN3CCCC3)cnc12 [Example 156, 2,2′-difluoro-N-[8-methyl-3-(1-pyrrolidinylmethyl)-7-quinolinyl][1,1′-biphenyl]-4-carboxamide]
> 220 °C (dec.) | CN1CCc2nc3cc(NC(=O)c4ccc(-c5ccc(Cl)cc5)cc4)ccc3cc2C1 [Example 326, 4′-chloro-N-(2-methyl-1,2,3,4-tetrahydrobenzo[b][1,6]naphthyridin-7-yl)[1,1′-biphenyl]-4-carboxamide]
220 to 223 °C | Cc1cc2cc(CN3CCCC3)cnc2cc1NC(=O)c1ccc(-c2ccc(F)c(F)c2)cc1 [Example 216, 3′,4′-difluoro-N-[6-methyl-3-(1-pyrrolidinylmethyl)-7-quinolinyl][1,1′-biphenyl]-4-carboxamide]
189 to 191 °C | Cc1cc2cc(CN3CCC(CCC(=O)N4CCCCC4)CC3)cnc2cc1NC(=O)c1ccc(-c2ccc(F)cc2)cc1 [Example 258, 4′-fluoro-N-[6-methyl-3-({4-[3-oxo-3-(1-piperidinyl)propyl]-1-piperidinyl}methyl)-7-quinolinyl][1,1′-biphenyl]-4-carboxamide]
